In publication PMC10011747, “Targeting androgen receptor and the variants by an orally bioavailable Proteolysis Targeting Chimeras compound in castration resistant prostate cancer” (eBioMedicine, 2023):
Like-named read-outs stand apart in the source and are kept apart here.

What was measured:
full-length AR [1] = biological target: T1, full-length AR (Homo sapiens, UniProt P10275, T878A); assay: AR degradation by western blot in prostate cancer cell lines; assay type: cell-based; details: LNCaP cells; for DC50: 24 h treatment; for Dmax at 20 µM: maximum degradation at 20 μM
T1 construct: calculated based on normalized full-length AR and AR-V7 band intensity; endogenous in cells; host or cells: LNCaP, CWR22Rv1, VCaP
T1 sequence (P10275 1-920 T878A): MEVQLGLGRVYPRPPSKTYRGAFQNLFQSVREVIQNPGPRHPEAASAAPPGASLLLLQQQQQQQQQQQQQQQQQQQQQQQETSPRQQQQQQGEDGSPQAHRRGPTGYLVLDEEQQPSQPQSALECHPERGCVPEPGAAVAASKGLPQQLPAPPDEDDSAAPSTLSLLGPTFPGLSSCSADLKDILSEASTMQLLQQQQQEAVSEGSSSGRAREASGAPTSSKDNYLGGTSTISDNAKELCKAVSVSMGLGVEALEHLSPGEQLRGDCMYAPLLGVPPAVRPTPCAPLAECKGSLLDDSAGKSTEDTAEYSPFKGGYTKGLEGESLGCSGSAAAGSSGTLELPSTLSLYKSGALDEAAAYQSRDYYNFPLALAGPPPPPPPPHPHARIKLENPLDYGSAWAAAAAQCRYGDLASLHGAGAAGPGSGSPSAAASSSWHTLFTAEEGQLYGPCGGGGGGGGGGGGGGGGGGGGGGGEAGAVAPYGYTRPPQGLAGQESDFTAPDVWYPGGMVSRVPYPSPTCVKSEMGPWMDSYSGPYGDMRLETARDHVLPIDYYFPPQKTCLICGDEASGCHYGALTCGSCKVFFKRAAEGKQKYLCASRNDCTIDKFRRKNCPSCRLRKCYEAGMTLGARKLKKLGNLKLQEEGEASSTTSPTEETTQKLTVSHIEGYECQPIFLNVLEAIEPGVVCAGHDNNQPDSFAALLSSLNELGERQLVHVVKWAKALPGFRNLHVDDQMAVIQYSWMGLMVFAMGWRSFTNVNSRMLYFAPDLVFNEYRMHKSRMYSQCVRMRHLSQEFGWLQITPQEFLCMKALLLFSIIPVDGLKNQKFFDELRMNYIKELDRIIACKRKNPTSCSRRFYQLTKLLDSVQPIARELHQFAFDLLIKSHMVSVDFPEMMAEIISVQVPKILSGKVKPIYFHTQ
Experimental: (§1) To obtain total lysates, cells were lysed in RIPA buffer (50 mM Tris–HCl pH 8.0, 150 mM NaCl, 1% NP-40, 0.5% Na-deoxycholate, 0.5% SDS plus protease inhibitors). The lysates were resolved by SDS-polyacrylamide gel electrophoresis, and the protein expression was analyzed by western blotting using primary antibodies against AR (Millipore Cat# 06-680, RRID:AB_310214), AR-V7 (RevMAb Biosciences Cat# 31-1109-00, RRID:AB_2716436), GAPDH (Cell Signaling Technology Cat# 2118, RRID:AB_561053) and Actin (Sigma–Aldrich Cat# A5441, RRID:AB_476744). pLenti4/TO/Flag-AR or pLenti4/TO/Flag-TC-AR plasmid was co-transfected with HA-ubiquitin plasmid into 293T cells. 24 h after transfection, the cells were treated with 10 μM of the PROTAC compounds for 16 h, followed by 4-h treatment of 5 μM MG132. The cells were lysed with lysis buffer (50 mM Tris–HCl pH7.5, 150 mM NaCl, 0. 5% Triton X-100, 10% glycerol, 1 mM EDTA plus protease inhibitors) containing 1 ng/mL of N-ethylmaleimide, followed by immunoprecipitation with anti-Flag M2 (Sigma–Aldrich Cat# F3165, RRID:AB_259529) antibody. The ubiquitinated AR was then detected by western blotting using anti-HA (Sigma–Aldrich Cat# H3663, RRID:AB_262051) antibody.
(§2) Fig. 1 PROTAC-based AR degraders ITRI-90, ITRI-125 and ITRI-126 reduce AR and AR-V7 proteins in prostate cancer cell lines. (a) Chemical structure of the PROTAC AR degraders. (b) Representative western blots of AR protein levels in LNCaP, CWR22Rv1 and VCaP cells treated with the PROTAC degraders for 24 h. AR was detected by N-terminal antibody which also detects C-terminal truncated AR-V(ΔLBD) in CWR22Rv1 cells. AR-V7 specific antibody was used for AR-V7 detection. 4%–12% gradient gel was used to separate different species of AR-V(ΔLBD) near 75 kDa in CWR22Rv1 cell lysates. DC50 indicating the concentration required to achieve 50% degradation, was calculated based on normalized full-length AR and AR-V7 band intensity. Dmax is the maximum degradation achieved at 20 μM compound treatment. TEXT PRINTED IN THE PICTURE: (a) ITRI-90: AR DC50 (μM) LNCaP: 2.12 ± 0.93; AR DC50 (μM) CWR22Rv1: 5.73 ± 2.28; AR DC50 (μM) VCaP: 8.67 ± 4.87; AR-V7 DC50 (μM) CWR22Rv1: 4.72 ± 2.52; AR-V7 DC50 (μM) VCaP: 0.29 ± 0.15; AR Dmax (%) LNCaP: 88; AR Dmax (%) CWR22Rv1: 98; AR Dmax (%) VCaP: 90; AR-V7 Dmax (%) CWR22Rv1: 100; AR-V7 Dmax (%) VCaP: 63 | (a) ITRI-125: AR DC50 (μM) LNCaP: 6.10 ± 4.43; AR DC50 (μM) CWR22Rv1: 6.64 ± 1.87; AR DC50 (μM) VCaP: 9.05 ± 3.75; AR-V7 DC50 (μM) CWR22Rv1: 1.89 ± 1.06; AR-V7 DC50 (μM) VCaP: 0.52 ± 0.37; AR Dmax (%) LNCaP: 71; AR Dmax (%) CWR22Rv1: 96; AR Dmax (%) VCaP: 85; AR-V7 Dmax (%) CWR22Rv1: 99; AR-V7 Dmax (%) VCaP: 67 | (a) ITRI-126: AR DC50 (μM) LNCaP: 3.41 ± 3.13; AR DC50 (μM) CWR22Rv1: 0.11 ± 0.02; AR DC50 (μM) VCaP: 0.851 ± 0.43; AR-V7 DC50 (μM) CWR22Rv1: 0.011 ± 0.003; AR-V7 DC50 (μM) VCaP: 0.43 ± 0.19; AR Dmax (%) LNCaP: 99; AR Dmax (%) CWR22Rv1: 74; AR Dmax (%) VCaP: 94; AR-V7 Dmax (%) CWR22Rv1: 91; AR-V7 Dmax (%) VCaP: 82

full-length AR [2] = assay: as above; assay type: cell-based, human; details: for sustainability of AR and AR-V(ΔLBD) degradation after drug washout: 10 μM for 24 h then washout, LNCaP, CWR22Rv1, VCaP; for AR degradation: CWR22Rv1 cells (Table S1); for DC50: 24 h treatment; for AR Dmax CWR22Rv1 / AR Dmax VCaP: maximum degradation at 20 μM
Experimental: as §1, §2

[3] = CWR22Rv1 cells, read-out: AR DC50 CWR22Rv1
[4] = VCaP cells, read-out: AR DC50 VCaP

| SMILES | DC50 (full-length AR [1]) [µM] | Dmax at 20 µM (full-length AR [1]) [%] | sustainability of AR and AR-V(ΔLBD) degradation after drug washout (full-length AR [2]) | AR degradation (full-length AR [2]) [%] | DC50 (full-length AR [2]; [3]) [µM] | AR Dmax CWR22Rv1 (full-length AR [2]; CWR22Rv1 cells) [%] | DC50 (full-length AR [2]; [4]) [µM] | AR Dmax VCaP (full-length AR [2]; VCaP cells) [%] |
| --- | --- | --- | --- | --- | --- | --- | --- | --- |
| Cc1ncsc1-c1ccc(CNC(=O)[C@@H]2C[C@H](O)CN2C(=O)[C@@H](NC(=O)COCCCCOc2ccc(C3CCN(C4=Nn5c(nnc5C(F)(F)F)CC4)CC3)cc2)C(C)(C)C)cc1 [ITRI-90, (2S,4S)-1-((S)-3,3-dimethyl-2-(2-(4-(4-(1-(3-(trifluoromethyl)-7,8-dihydro-[1,2,4]triazolo[4,3-b]pyridazin-6-yl)piperidin-4-yl)phenoxy)butoxy)acetamido)butanoyl)-4-hydroxy-N-(4-(4-methylthiazol-5-yl)benzyl)pyrrolidine-2-carboxamide] | 2.12 ± 0.93 | 88 | sustain low protein levels up to 24 h after drug washout | 98.28 | 5.73 ± 2.28 | 98 | 8.67 ± 4.87 | 90 |
| Cc1ncsc1-c1ccc(CNC(=O)[C@@H]2C[C@H](O)CN2C(=O)[C@@H](NC(=O)COCCCCCCOc2ccc(C3CCN(C4=Nn5c(nnc5C(F)(F)F)CC4)CC3)cc2)C(C)(C)C)cc1 [ITRI-125, (2S,4S)-1-((S)-3,3-dimethyl-2-(2-(6-(4-(1-(3-(trifluoromethyl)-7,8-dihydro-[1,2,4]triazolo[4,3-b]pyridazin-6-yl)piperidin-4-yl)phenoxy)hexyloxy)acetamido)butanoyl)-4-hydroxy-N-(4-(4-methylthiazol-5-yl)benzyl)pyrrolidine-2-carboxamide] | 6.1 ± 4.43 | 71 | lost the degrading effects on both full-length and truncated AR within 8 h post drug removal | 92.53 | 6.64 ± 1.87 | 96 | 9.05 ± 3.75 | 85 |
| O=C1CCC(N2Cc3c(NC(=O)COCCCCOc4ccc(C5CCN(C6=Nn7c(nnc7C(F)(F)F)CC6)CC5)cc4)cccc3C2=O)C(=O)N1 (centres unmarked) [ITRI-126, N-(2-(2,6-dioxopiperidin-3-yl)-1-oxoisoindolin-4-yl)-2-(4-(4-(1-(3-(trifluoromethyl)-7,8-dihydro-[1,2,4]triazolo[4,3-b]pyridazin-6-yl)piperidin-4-yl)phenoxy)butoxy)acetamide] | 3.41 ± 3.13 | 99 | sustain low protein levels up to 24 h after drug washout |  | 0.11 ± 0.02 | 74 | 0.851 ± 0.43 | 94 |
